Test results published in ChEMBL document CHEMBL1201862, “PubChem BioAssay data set” (2004).
Active and inactive are the calls of the source.

Key:
[1] = tested on: HEK293; experiment: cells; assay type: functional, cell-based; conditions: Homo sapiens
[2] = tested on: HEK293; experiment: cells; conditions: Homo sapiens
[3] = tested on: HEK293; experiment: inhibition of NOD1-driven NF-kB reporter – cell-based, luminescence, uHTS, primary screen (AID 1578); assay type: functional; conditions: Homo sapiens
[4] = tested on: HEK293; experiment: NOD2 signaling inhibitors in MDP-stimulated cells, cell-based, uHTS, luminescence (AID 2001); assay type: functional; conditions: Homo sapiens
[5] = molecular target: T1, Microphthalmia-associated transcription factor (Homo sapiens, UniProt O75030); experiment: reducers of TRPM1 reporter luminescence, concentration series – cell-based, SK-MEL-5, cherry-picked, set 3, MITF inhibitor project, dose response (AID 493073); assay type: functional;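 also: SK-MEL-5 melanoma cells with luciferase driven by the MITF target TRPM1 promoter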
T1 sequence (O75030 whole entry): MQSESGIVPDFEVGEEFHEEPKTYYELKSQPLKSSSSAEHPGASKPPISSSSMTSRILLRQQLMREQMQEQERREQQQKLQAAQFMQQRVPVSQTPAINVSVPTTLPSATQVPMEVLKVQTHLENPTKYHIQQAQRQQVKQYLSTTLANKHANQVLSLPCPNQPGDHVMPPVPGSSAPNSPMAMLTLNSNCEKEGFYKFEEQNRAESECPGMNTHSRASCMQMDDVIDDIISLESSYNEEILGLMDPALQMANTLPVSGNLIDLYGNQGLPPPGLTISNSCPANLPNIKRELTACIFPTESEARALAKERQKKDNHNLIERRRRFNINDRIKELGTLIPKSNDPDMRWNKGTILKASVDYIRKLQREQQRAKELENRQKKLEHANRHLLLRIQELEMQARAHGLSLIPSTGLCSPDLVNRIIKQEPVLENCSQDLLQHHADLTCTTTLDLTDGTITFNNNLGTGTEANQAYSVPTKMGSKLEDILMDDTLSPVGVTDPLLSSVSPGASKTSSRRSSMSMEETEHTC

[6] = tested on: HEK293; experiment: cells; assay type: functional, cell-based; conditions: Homo sapiens; remark: listed apart in the source
[7] = molecular target: Tumor necrosis factor (Homo sapiens, UniProt P01375); experiment: analog potency on TNFa NF-kB signaling – cell-based, revised, SAR follow-up (AID 2337); assay type: functional
[8] = molecular target: Nucleotide-binding oligomerization domain-containing protein 1 (Homo sapiens, UniProt Q9Y239); experiment: blockers of NOD1 pathway activity – revised, SAR follow-up (AID 2333); assay type: functional
[9] = molecular target: Glucose-6-phosphate 1-dehydrogenase (Homo sapiens, UniProt P11413); experiment: inhibition of Homo sapiens G6PD, dose series – biochemical, fluorescence, selectivity assay for P. falciparum G6PD inhibitor project, dose response (AID 504792); assay type: functional
[10] = tested on: HEK293; experiment: cells; assay type: functional, cell-based; conditions: Homo sapiens; remark: listed apart in the source
[11] = molecular target: T2, Nuclear receptor subfamily 0 group B member 1 (Homo sapiens, UniProt P51843); experiment: Luminescence-based cell-based high throughput dose response assay for inhibitors of the orphan nuclear receptor subfamily 0, group B, member 1 (DAX1; NR0B1). [Related pubchem assays (depositor defined):AID504766, AID504790]; assay type: functional
T2 sequence (P51843 whole entry): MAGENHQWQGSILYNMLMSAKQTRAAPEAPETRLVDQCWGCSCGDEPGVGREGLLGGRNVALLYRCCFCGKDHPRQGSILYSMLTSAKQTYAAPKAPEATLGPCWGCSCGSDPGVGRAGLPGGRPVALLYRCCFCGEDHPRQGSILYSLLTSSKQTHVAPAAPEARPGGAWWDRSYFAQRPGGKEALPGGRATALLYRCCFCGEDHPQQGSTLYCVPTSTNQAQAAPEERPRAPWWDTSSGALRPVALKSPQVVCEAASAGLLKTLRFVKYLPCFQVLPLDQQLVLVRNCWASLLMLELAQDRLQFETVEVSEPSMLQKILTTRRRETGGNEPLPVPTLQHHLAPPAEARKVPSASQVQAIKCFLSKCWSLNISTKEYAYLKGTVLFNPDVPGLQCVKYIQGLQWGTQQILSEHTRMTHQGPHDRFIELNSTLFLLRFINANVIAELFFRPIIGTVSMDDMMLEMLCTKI

[12] = molecular target: Sphingosine 1-phosphate receptor 1 (Homo sapiens, UniProt P21453); experiment: Fluorescence-based counterscreen assay for S1P4 agonists: Cell-based dose response high throughput screening assay to identify agonists of the Sphingosine 1-Phosphate Receptor 1 (S1P1). [Related pubchem assays (depositor defined):AID1509, AID1523, AID1801, AID463107, AID463118, AID463119, AID463122, AID463123, AID463129, AID463225, AID504400, AID504460]; assay type: functional
[13] = molecular target: T3, Sphingosine 1-phosphate receptor 4 (Homo sapiens, UniProt O95977); experiment: Fluorescence dose response cell-based high throughput screening assay for agonists of the Sphingosine 1-Phosphate Receptor 4 (S1P4). [Related pubchem assays: 1509 (Primary screen.), 1523 (Confirmation screen in triplicates.)]; assay type: functional
T3 sequence (O95977 whole entry): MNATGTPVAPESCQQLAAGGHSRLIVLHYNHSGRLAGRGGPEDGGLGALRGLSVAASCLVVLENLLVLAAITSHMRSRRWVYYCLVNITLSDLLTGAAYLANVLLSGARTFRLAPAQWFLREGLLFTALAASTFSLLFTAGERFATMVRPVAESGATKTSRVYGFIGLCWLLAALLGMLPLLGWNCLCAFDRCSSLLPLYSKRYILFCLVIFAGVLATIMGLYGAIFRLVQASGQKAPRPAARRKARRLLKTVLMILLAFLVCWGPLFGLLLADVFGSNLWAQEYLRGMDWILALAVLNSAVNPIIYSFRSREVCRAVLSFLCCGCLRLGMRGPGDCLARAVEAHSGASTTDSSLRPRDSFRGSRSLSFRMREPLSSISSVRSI

[14] = molecular target: Cytochrome P450 2D6 (Homo sapiens, UniProt P10635);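 also: CYP2D6 member of a cytochrome P450 panel assay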
[15] = molecular target: T4, Calpain-2 catalytic subunit (Sus scrofa, UniProt P43367); experiment: m-calpain protease blockers, concentration series – biochemical, fluorogenic peptide substrate, dose response (AID 1420); assay type: functional
T4 sequence (P43367 whole entry): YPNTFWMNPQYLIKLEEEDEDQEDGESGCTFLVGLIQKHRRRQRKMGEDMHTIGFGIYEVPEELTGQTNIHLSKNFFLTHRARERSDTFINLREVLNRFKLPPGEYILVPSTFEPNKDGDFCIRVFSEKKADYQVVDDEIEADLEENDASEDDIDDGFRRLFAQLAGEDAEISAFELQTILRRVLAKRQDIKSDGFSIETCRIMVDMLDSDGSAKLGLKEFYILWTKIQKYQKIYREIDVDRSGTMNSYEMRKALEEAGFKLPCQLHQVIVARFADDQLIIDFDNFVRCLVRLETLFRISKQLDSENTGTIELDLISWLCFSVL

[16] = molecular target: T5, Polyadenylate-binding protein 1 (Homo sapiens, UniProt P11940); experiment: MLLE domain peptide-binding blockers, IC50 – biochemical, fluorescence polarization, FITC-PAM2 peptide, dose response (AID 602259); assay type: functional; conditions: read-out: IC50_Mean
[17] = molecular target: Disintegrin and metalloproteinase domain-containing protein 17 (Homo sapiens, UniProt P78536); experiment: exosite inhibitors of ADAM17, dose response, biochemical (AID 743260)
[18] = molecular target: T5, Polyadenylate-binding protein 1; experiment: MLLE binding blockers, Cy5 peptide tracer – biochemical, fluorescence polarization, Cy5-PAM2 peptide, secondary, miRNA deadenylation inhibitor project, dose response (AID 602260); assay type: functional; conditions: read-out: IC50_Mean
[19] = molecular target: T6, High affinity choline transporter 1 (Homo sapiens, UniProt Q9GZV3); experiment: human choline transporter blockers, potency – cell-based, 5-point CRC, membrane potential dye, dose response (AID 504840); assay type: functional
T6 sequence (Q9GZV3 whole entry): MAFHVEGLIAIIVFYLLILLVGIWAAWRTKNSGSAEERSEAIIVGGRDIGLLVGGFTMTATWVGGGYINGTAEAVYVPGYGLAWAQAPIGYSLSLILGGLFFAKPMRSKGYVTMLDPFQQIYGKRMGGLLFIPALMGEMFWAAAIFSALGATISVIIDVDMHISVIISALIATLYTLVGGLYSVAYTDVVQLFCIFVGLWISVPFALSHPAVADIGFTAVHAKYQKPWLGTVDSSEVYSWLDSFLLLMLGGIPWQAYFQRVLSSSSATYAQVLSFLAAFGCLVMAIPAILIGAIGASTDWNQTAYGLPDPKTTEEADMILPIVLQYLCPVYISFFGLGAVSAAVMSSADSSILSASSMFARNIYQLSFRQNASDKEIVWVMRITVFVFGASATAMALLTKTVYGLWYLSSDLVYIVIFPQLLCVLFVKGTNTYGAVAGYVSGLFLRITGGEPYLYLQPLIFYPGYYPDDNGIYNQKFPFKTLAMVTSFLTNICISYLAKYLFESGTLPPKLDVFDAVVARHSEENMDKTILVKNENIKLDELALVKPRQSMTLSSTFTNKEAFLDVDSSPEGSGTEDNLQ

Sphingosine 1-phosphate receptor 1, sequence (P21453 whole entry): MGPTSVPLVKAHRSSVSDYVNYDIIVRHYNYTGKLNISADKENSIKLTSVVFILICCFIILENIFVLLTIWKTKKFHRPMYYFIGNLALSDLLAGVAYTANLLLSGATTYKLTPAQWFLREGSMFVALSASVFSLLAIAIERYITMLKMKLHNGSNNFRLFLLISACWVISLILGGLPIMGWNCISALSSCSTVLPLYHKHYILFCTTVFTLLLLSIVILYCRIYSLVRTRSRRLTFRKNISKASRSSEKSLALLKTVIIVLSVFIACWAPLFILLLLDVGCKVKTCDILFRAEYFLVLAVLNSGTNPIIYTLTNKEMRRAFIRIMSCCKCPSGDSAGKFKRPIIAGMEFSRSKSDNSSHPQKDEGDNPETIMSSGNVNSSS
Glucose-6-phosphate 1-dehydrogenase, sequence (P11413 whole entry): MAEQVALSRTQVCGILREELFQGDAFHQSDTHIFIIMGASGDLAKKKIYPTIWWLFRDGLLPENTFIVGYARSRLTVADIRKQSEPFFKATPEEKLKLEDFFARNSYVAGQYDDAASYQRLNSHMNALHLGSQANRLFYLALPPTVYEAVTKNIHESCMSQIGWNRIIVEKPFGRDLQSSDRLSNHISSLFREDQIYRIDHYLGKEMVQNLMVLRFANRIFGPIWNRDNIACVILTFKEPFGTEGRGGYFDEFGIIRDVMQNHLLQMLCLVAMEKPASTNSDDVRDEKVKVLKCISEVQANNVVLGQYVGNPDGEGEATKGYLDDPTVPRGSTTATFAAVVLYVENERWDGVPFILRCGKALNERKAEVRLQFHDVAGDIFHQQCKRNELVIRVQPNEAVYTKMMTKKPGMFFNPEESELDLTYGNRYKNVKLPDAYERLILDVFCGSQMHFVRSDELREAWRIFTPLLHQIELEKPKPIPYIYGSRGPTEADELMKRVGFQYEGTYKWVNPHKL
T5 sequence (P11940 whole entry, the tested form may be a part): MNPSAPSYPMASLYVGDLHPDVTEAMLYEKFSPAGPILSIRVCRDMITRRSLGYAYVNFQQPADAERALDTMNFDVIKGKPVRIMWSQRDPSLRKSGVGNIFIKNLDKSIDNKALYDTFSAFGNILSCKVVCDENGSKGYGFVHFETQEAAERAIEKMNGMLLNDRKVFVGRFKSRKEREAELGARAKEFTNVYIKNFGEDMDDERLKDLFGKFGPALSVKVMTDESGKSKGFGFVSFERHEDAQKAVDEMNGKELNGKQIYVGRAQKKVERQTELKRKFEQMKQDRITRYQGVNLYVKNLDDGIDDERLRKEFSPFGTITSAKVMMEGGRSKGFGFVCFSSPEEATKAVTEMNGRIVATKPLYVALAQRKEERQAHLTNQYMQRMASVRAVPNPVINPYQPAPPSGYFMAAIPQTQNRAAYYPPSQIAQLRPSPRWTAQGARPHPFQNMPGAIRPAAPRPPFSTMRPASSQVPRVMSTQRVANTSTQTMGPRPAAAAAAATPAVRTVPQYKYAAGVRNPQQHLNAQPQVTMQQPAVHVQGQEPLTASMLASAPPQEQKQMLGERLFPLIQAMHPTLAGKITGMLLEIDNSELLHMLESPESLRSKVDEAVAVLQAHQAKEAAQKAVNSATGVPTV
Cytochrome P450 2D6, sequence (P10635 whole entry): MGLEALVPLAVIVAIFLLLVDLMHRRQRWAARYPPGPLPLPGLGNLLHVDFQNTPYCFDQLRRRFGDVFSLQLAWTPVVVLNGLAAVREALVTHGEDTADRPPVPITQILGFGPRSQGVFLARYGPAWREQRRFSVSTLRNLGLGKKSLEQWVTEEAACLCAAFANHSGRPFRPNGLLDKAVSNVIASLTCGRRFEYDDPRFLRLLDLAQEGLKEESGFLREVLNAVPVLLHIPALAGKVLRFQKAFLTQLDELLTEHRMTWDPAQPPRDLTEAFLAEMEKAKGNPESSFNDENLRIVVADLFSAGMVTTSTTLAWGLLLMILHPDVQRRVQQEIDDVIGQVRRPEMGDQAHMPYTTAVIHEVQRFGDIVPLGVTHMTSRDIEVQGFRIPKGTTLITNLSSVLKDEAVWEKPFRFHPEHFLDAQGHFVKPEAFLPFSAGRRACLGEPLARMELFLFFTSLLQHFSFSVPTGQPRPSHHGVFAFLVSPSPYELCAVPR
Disintegrin and metalloproteinase domain-containing protein 17, sequence (P78536 whole entry, the tested form may be a part): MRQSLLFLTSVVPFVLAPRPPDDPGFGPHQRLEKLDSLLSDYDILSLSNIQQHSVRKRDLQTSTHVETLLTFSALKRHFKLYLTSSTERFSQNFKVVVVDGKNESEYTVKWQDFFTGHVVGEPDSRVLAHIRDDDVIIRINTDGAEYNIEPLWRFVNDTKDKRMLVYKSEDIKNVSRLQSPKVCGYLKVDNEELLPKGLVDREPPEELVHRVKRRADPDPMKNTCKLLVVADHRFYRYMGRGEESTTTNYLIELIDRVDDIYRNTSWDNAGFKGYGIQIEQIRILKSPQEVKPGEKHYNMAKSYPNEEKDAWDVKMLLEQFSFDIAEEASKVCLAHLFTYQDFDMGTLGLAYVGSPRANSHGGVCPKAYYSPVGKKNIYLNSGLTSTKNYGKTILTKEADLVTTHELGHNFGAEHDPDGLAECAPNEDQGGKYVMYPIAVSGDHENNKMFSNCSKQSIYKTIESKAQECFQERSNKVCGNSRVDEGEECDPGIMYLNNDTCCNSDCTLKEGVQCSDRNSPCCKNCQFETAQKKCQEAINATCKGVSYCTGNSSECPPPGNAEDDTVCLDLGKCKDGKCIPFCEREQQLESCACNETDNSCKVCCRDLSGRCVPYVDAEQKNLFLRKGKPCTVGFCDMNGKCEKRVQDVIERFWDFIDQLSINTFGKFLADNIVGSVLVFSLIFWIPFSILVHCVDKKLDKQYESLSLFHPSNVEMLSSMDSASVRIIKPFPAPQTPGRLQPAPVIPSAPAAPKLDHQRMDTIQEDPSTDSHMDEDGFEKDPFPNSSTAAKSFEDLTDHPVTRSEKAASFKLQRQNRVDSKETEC
Nucleotide-binding oligomerization domain-containing protein 1, sequence (Q9Y239 whole entry, the tested form may be a part): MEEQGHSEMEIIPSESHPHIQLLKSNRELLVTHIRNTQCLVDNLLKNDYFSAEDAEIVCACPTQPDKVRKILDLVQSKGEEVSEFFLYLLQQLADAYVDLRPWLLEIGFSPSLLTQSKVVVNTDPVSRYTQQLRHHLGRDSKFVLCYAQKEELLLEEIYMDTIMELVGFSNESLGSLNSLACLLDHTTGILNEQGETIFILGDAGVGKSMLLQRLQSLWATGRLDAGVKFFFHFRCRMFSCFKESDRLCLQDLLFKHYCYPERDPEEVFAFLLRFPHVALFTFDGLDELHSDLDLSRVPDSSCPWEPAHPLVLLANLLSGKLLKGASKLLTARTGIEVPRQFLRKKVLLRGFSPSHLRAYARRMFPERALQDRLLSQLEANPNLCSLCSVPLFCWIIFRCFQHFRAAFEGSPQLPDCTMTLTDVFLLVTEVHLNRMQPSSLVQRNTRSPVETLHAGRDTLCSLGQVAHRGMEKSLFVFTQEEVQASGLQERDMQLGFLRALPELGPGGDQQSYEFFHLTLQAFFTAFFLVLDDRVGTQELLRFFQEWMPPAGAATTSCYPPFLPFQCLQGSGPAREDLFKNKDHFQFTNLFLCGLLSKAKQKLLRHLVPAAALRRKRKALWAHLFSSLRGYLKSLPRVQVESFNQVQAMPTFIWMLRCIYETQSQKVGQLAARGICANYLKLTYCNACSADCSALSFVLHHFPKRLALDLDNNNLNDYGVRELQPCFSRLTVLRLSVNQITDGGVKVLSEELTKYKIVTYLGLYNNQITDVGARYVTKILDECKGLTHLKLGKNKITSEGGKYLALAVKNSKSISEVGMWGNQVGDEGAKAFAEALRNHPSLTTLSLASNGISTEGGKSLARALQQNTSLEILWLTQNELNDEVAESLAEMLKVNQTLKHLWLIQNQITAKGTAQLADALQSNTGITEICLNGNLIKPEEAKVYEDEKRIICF
Tumor necrosis factor, sequence (P01375 whole entry, the tested form may be a part): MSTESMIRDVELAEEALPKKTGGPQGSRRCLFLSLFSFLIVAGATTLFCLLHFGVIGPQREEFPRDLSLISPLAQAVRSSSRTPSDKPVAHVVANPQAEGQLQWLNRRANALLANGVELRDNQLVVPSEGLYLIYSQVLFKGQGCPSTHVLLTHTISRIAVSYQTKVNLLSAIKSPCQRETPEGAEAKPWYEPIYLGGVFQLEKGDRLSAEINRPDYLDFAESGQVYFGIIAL

With `O=C(c1ccc(S(=O)(=O)Cc2ccccc2Cl)c([N+](=O)[O-])c1)N1CCN(c2ccccn2)CC1` the IC50 [1] was 2.81 µM (active), the IC50 [2] was 16.3 µM (active) and the EC50 [3] was 11.8 µM (active). The IC50 [4] was 3.63 µM (active), the AC50 [5] was 9.49 µM (active) and the IC50 [6] was > 20 µM (inactive). For the same compound, the IC50 [7] was 4.53 µM (active) and the IC50 [8] was 4.24 µM (active).
For `N#Cc1ccc(Oc2cccc3cccnc23)c([N+](=O)[O-])c1`, the IC50 [9] was > 80 µM (inactive).
For `COCCCNC(=O)c1ccc(CN2CCc3ccccc3C2)cc1`, the IC50 [10] was > 67.5 µM (inactive) and the IC50 [11] was > 67.5 µM (inactive).
With `COc1ccc(CN(C)S(=O)(=O)c2nnc(NC(=O)c3ccc(C)cc3)s2)cc1OC` the IC50 [9] was 46 µM (inactive).
In the case of `N#Cc1c(-n2cccc2C=O)sc2c1CCCC2`, the EC50 [12] is reported as > 49.8 µM (inactive) and the EC50 [13] is reported as 32.2 µM (not active).
In the case of `Cc1cc(-n2c(=O)c(C#N)cc3c(=O)n4ccccc4nc32)no1`, the EC50 [12] is reported as 10.1 µM (inactive) and the EC50 [13] is reported as 4.43 µM (active).
With `COc1cccc(CN2C(=O)N(C(C)C)C(N(O)C(=O)NC(C)C)C2(C)C)c1OC` (configuration not stated) the AC50 [14] was “inconclusive”.
With `S=c1[nH]nc(-c2sccc2OCc2ccc(Cl)cc2Cl)[nH]1` the IC50 [15] was 10.1 µM (not active), the IC50 [16] was > 66 µM (inactive) and the IC50 [17] was > 69.5 µM (inactive). For the same compound, the IC50 [18] was > 66 µM (inactive) and the IC50 [19] was 11.5 µM (active).
